Laboratory results: US12350272B2, “Pyridopyrimidinone derivatives for use as AXL inhibitors” (OSCOTEC INC., priority 2018, dated 2025)
pIC50: −log10 of the molar value. Counter-ions that a name gives are not always drawn. Like-named read-outs stand apart in the source and are kept apart here.

Columns and labels:
[1] = biological target: Truncated human Axl (Homo sapiens, UniProt P30530); experiment: Kinase inhibition assay (inhibition of enzymatic Axl kinase activity); assay type: biochemical
Procedure: Compounds of Formula (I) as obtained above were assayed to measure their capacity to inhibit Axl kinase. Axl belongs to the recently identified TYRO-3, Axl, MERTK (TAM) receptor tyrosine kinase (RTK) family. […] Upon GAS6 binding, Axl homodimerizes and subsequently induces several downstream signaling pathways involved in cell proliferation, migration, invasion, anti-apoptosis, angiogenesis, metastasis, and therapeutic resistance. Upregulation of Axl has been reported in a wide variety of cancer cell lines as well as in cancer specimens from patients with breast cancer, acute leukemia, colorectal cancer, lung cancer, melanoma, ovarian cancer, or prostate cancer, among others.
Compounds of Formula (I) as obtained above were initially diluted to […] in 100% DMSO (CALBIOCHEM™) for storage and made into kinase buffer solution to create a compound concentration ranging from 1 uM and 10 uM. Serial dilutions of the compounds were dispensed into a 96-well plate (GREINER BIOSCIENCES™) at 6 μL each. Truncated human Axl (CARNA BIOSCIENCES™) were diluted in kinase buffer and added to the compound solutions and pre-incubated for 30 minutes at room temperature. […] The reaction mixture was incubated for 1 hour. Following the incubation, the stop solution made with EDTA, water, and Lance detection buffer ([…]™) were added (12 μL each) to stop phosphorylation.

[2] = biological target: JAK2 (Homo sapiens (Human), UniProt O60674); experiment: Biochemical inhibition of JAK2; details: Table 2, range of IC50 value
Sequence of JAK2 (O60674 whole entry, species assumed): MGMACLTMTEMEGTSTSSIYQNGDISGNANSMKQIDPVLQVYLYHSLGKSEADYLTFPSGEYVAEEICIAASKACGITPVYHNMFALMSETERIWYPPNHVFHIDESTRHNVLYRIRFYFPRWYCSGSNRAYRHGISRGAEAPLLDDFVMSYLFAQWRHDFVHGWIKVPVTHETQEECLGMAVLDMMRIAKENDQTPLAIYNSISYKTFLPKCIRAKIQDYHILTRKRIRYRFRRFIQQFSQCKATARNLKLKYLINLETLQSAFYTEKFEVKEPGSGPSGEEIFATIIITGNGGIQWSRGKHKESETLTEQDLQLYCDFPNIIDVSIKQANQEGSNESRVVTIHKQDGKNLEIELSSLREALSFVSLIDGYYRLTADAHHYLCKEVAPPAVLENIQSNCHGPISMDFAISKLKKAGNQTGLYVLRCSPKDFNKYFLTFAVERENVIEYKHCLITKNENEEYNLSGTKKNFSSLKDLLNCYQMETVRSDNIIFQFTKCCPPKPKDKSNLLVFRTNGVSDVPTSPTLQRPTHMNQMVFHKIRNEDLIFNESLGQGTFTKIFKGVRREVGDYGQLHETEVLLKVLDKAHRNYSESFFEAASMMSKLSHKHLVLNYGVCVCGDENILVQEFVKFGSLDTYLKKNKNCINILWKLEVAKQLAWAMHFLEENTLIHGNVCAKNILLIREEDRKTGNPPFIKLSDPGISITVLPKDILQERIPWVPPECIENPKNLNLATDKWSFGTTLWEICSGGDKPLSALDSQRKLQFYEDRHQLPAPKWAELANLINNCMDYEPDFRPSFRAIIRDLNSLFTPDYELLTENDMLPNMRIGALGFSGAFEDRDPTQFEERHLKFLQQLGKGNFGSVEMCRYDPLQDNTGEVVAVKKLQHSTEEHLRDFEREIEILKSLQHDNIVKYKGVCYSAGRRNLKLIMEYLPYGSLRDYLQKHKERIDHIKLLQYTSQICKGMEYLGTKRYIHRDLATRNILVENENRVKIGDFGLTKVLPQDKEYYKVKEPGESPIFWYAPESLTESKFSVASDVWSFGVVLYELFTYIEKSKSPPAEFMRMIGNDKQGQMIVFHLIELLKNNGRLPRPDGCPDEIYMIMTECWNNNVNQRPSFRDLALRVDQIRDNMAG

[3] = Table 2, range of IC50 value, read-out: Axl

Sequence of Truncated human Axl (P30530 26-894 limits assumed): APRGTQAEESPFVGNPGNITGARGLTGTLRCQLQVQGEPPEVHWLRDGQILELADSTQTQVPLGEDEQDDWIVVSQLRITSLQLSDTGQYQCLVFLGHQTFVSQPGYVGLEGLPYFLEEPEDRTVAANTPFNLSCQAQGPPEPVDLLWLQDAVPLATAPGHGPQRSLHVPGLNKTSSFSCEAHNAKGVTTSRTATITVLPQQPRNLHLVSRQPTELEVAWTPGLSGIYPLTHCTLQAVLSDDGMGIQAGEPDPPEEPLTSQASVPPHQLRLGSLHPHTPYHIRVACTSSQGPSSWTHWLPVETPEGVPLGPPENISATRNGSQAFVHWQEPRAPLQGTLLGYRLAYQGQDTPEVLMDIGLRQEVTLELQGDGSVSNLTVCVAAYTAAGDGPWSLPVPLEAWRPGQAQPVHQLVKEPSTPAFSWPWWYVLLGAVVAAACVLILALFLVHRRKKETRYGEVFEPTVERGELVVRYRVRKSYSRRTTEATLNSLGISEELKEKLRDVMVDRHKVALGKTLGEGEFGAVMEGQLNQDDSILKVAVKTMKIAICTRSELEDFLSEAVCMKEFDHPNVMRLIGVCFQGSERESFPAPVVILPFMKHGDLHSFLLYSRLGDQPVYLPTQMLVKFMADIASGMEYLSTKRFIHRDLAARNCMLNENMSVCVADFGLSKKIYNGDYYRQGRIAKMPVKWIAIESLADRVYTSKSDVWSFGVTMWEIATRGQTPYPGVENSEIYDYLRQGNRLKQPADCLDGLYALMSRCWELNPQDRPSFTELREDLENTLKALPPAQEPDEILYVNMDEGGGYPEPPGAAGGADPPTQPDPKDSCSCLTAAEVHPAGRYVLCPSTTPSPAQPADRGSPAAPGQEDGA

| SMILES | pIC50 ([1]; Table 1, read-out: Axl (IC50)) | pIC50 [2] | pIC50 [1, 3] |
| --- | --- | --- | --- |
| CN1CCC(Nc2nc(Nc3ccc(OCc4ccccc4)cc3)c3c(=O)[nH]cc(Br)c3n2)CC1 [Compound 221, 4-((4-(benzyloxy)phenyl)amino)-8-bromo-2-((1-methylpiperidin-4-yl)amino)pyrido[4,3-d]pyrimidin-5(6H)-one] | 6.00 to 7.00 |  |  |
| CN1CCC(Nc2nc(Nc3ccc(Oc4ccccc4)cc3)c3c(=O)[nH]cc(Br)c3n2)CC1 [Compound 222, 8-bromo-2-((1-methylpiperidin-4-yl)amino)-4-((4-phenoxyphenyl)amino)pyrido[4,3-d]pyrimidin-5(6H)-one] |  | 6.00 to 7.00 |  |
| CN1CCC(Nc2nc(Nc3ccc(OC4CCCC4)cc3)c3c(=O)[nH]cc(Br)c3n2)CC1 [Compound 223, 8-bromo-4-((4-(cyclopentyloxy)phenyl)amino)-2-((1-methylpiperidin-4-yl)amino)pyrido[4,3-d]pyrimidin-5(6H)-one] | 6.00 to 7.00 | 6.00 to 7.00 | 6.00 to 7.00 |
| CN1CCC(Nc2nc(Nc3ccc(OCC4CCCCC4)cc3)c3c(=O)[nH]cc(Br)c3n2)CC1 [Compound 224, 8-bromo-4-((4-(cyclohexylmethoxy)phenyl)amino)-2-((1-methylpiperidin-4-yl)amino)pyrido[4,3-d]pyrimidin-5(6H)-one] | 6.00 to 7.00 |  |  |
| Cc1ccc(Oc2ccc(Nc3nc(NC4CCN(C)CC4)nc4c(Br)c[nH]c(=O)c34)cc2)cc1 [Compound 225, 8-bromo-2-((1-methylpiperidin-4-yl)amino)-4-((4-(p-tolyloxy)phenyl)amino)pyrido[4,3-d]pyrimidin-5(6H)-one] | 7.00 to 7.96 | 5.00 to 6.00 | 7.00 to 7.96 |
| CN1CCC(Nc2nc(Nc3ccc(OCC4CCCC4)cc3)c3c(=O)[nH]cc(Br)c3n2)CC1 [Compound 227, 8-bromo-4-((4-(cyclopentylmethoxy)phenyl)amino)-2-((1-methylpiperidin-4-yl)amino)pyrido[4,3-d]pyrimidin-5(6H)-one] | 6.00 to 7.00 |  |  |
| CN1CCC(Nc2nc(Nc3ccc(OC4CCCCC4)cc3)c3c(=O)[nH]cc(Br)c3n2)CC1 [Compound 228, 8-bromo-4-((4-(cyclohexyloxy)phenyl)amino)-2-((1-methylpiperidin-4-yl)amino)pyrido[4,3-d]pyrimidin-5(6H)-one] | 6.00 to 7.00 | 6.00 to 7.00 | 6.00 to 7.00 |
| CN1CCC(Nc2nc(Nc3ccc(OC4CCCCC4)cc3)c3c(=O)[nH]cc(Cl)c3n2)CC1 [Compound 229, 8-chloro-4-((4-(cyclohexyloxy)phenyl)amino)-2-((1-methylpiperidin-4-yl)amino)pyrido[4,3-d]pyrimidin-5(6H)-one] | 6.00 to 7.00 |  |  |
| CC(C)c1ccc(Oc2ccc(Nc3nc(NC4CCN(C)CC4)nc4c(Br)c[nH]c(=O)c34)cc2)cc1 [Compound 230, 8-bromo-4-((4-(4-isopropylphenoxy)phenyl)amino)-2-((1-methylpiperidin-4-yl)amino)pyrido[4,3-d]pyrimidin-5(6H)-one] | 7.00 to 7.96 |  |  |
| Cc1ccc(Oc2ccc(Nc3nc(NC4CCN(C)CC4)nc4c(Br)c[nH]c(=O)c34)cc2)cc1 [Compound 231, 8-bromo-2-((1-methylpiperidin-4-yl)amino)-4-((4-(p-tolyloxy)phenyl)amino)pyrido[4,3-d]pyrimidin-5(6H)-one hydrochloride] | 7.00 to 7.96 |  |  |
| CN1CCC(Nc2nc(Nc3ccc(Oc4ccc(F)cc4)cc3)c3c(=O)[nH]cc(Br)c3n2)CC1 [Compound 232, 8-bromo-4-((4-(4-fluorophenoxy)phenyl)amino)-2-((1-methylpiperidin-4-yl)amino)pyrido[4,3-d]pyrimidin-5(6H)-one hydrochloride] | 7.00 to 7.96 |  |  |
| CN1CCC(Nc2nc(Nc3ccc(OCc4ccccc4)cc3)c3c(=O)[nH]cc(Br)c3n2)CC1 [Compound 234, 4-((4-(benzyloxy)phenyl)amino)-8-bromo-2-((1-methylpiperidin-4-yl)amino)pyrido[4,3-d]pyrimidin-5(6H)-one hydrochloride] | 6.00 to 7.00 |  |  |
| CC(C)c1ccc(Oc2ccc(Nc3nc(NC4CCN(C)CC4)nc4c(Br)c[nH]c(=O)c34)cc2)cc1 [Compound 236, 8-bromo-4-((4-(4-isopropylphenoxy)phenyl)amino)-2-((1-methylpiperidin-4-yl)amino)pyrido[4,3-d]pyrimidin-5(6H)-one hydrochloride] | 7.00 to 7.96 |  |  |
| Cc1ccccc1Oc1ccc(Nc2nc(NC3CCN(C)CC3)nc3c(Br)c[nH]c(=O)c23)cc1 [Compound 239, 8-bromo-2-((1-methylpiperidin-4-yl)amino)-4-((4-(o-tolyloxy)phenyl)amino)pyrido[4,3-d]pyrimidin-5(6H)-one hydrochloride] | 7.00 to 7.96 |  |  |
| CN1CCC(Nc2nc(Nc3ccc(Oc4ccc(Cl)cc4)cc3)c3c(=O)[nH]cc(Br)c3n2)CC1 [Compound 242, 8-bromo-4-((4-(4-chlorophenoxy)phenyl)amino)-2-((1-methylpiperidin-4-yl)amino)pyrido[4,3-d]pyrimidin-5(6H)-one hydrochloride] | 7.00 to 7.96 |  |  |
| CN1CCC(Nc2nc(Nc3ccc(Oc4cc(F)cc(F)c4)cc3)c3c(=O)[nH]cc(Br)c3n2)CC1 [Compound 243, 8-bromo-4-((4-(3,5-difluorophenoxy)phenyl)amino)-2-((1-methylpiperidin-4-yl)amino)pyrido[4,3-d]pyrimidin-5(6H)-one hydrochloride] | 7.00 to 7.96 |  |  |
| Cc1cc(Nc2nc(NC3CCN(C)CC3)nc3c(Br)c[nH]c(=O)c23)ccc1Oc1cccc(F)c1 [Compound 244, 8-bromo-4-((4-(3-fluorophenoxy)-3-methylphenyl)amino)-2-((1-methylpiperidin-4-yl)amino)pyrido[4,3-d]pyrimidin-5(6H)-one hydrochloride] | 7.00 to 7.96 |  |  |
| CN1CCC(Nc2nc(Nc3ccc(Oc4ccccc4)c(F)c3)c3c(=O)[nH]cc(Br)c3n2)CC1 [Compound 245, 8-bromo-4-((3-fluoro-4-phenoxyphenyl)amino)-2-((1-methylpiperidin-4-yl)amino)pyrido[4,3-d]pyrimidin-5(6H)-one hydrochloride] | 7.00 to 7.96 |  |  |
| Cc1cc(Nc2nc(NC3CCN(C)CC3)nc3c(Br)c[nH]c(=O)c23)ccc1Oc1ccccc1 [Compound 246, 8-bromo-4-((3-methyl-4-phenoxyphenyl)amino)-2-((1-methylpiperidin-4-yl)amino)pyrido[4,3-d]pyrimidin-5(6H)-one hydrochloride] | 7.00 to 7.96 |  |  |
| CN1CCC(Nc2nc(Nc3ccc(Oc4cccc(F)c4)c(F)c3)c3c(=O)[nH]cc(Br)c3n2)CC1 [Compound 247, 8-bromo-4-((3-fluoro-4-(3-fluorophenoxy)phenyl)amino)-2-((1-methylpiperidin-4-yl)amino)pyrido[4,3-d]pyrimidin-5(6H)-one hydrochloride] | 7.00 to 7.96 |  |  |
| CC(C)N1CCC(Nc2nc(Nc3ccc(Oc4ccccc4)cc3)c3c(=O)[nH]cc(Br)c3n2)CC1 [Compound 248, 8-bromo-2-(1-isopropylpiperidin-4-ylamino)-4-(4-phenoxyphenylamino)pyrido[4,3-d]pyrimidin-5(6H)-one] | 7.00 to 7.96 |  |  |
| CCN1CCC(Nc2nc(Nc3ccc(Oc4ccccc4)cc3)c3c(=O)[nH]cc(Br)c3n2)CC1 [Compound 249, 8-bromo-2-(1-ethylpiperidin-4-ylamino)-4-(4-phenoxyphenylamino)pyrido[4,3-d]pyrimidin-5(6H)-one] | 7.00 to 7.96 |  |  |
| O=c1[nH]cc(Br)c2nc(NC3CCN(CC(F)(F)F)CC3)nc(Nc3ccc(Oc4ccccc4)cc3)c12 [Compound 250, 8-bromo-4-(4-phenoxyphenylamino)-2-(1-(2,2,2-trifluoroethyl)piperidin-4-ylamino)pyrido[4,3-d]pyrimidin-5(6H)-one] | 6.00 to 7.00 |  |  |
